#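 Test compounds were applied to cells in 96-well plates for 48 hours at 5 doses. GI50: concentration for 50% inhibition of growth. TGI denotes the concentration required for complete inhibition of growth.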
# How the values were obtained:
# SN12K1 renal = experiment: NCI tumour cell line growth inhibition, 48 h
# P388 leukemia = experiment: NCI tumour cell line growth inhibition, 48 h
compound,measurement,setting,value
OC(C1CO1)C(O)C1CO1 (stereo not given),TGI,SN12K1 renal,150 µM
same,TGI,P388 leukemia,150 µM
CCOC(=O)NC1=C(N2CC2)C(=O)C(NC(=O)OCC)=C(N2CC2)C1=O,TGI,SN12K1 renal,15.7 µM
same,TGI,P388 leukemia,14 µM
CC(C)[NH-].CC(C)[NH-].O.O.[Cl][Pt+2][Cl],GI50,SN12K1 renal,31.1 µM
same,TGI,SN12K1 renal,150 µM
same,GI50,P388 leukemia,6.66 µM
same,TGI,P388 leukemia,37.9 µM
O=C(NCCCCCCNC(=O)n1cc(F)c(=O)[nH]c1=O)NCCCOCCOCCOCCOCCOCCOCCOCCOCCOCCOCCOCCOCCOCCOCCOCCOCCOCCOCCOCCOCCOCCCNC(=O)C(O)C(O)C(OC1OC(CO)C(O)C(O)C1O)C(O)CO (stereo not given),TGI,SN12K1 renal,> 100 µM
same,TGI,P388 leukemia,> 100 µM
